{"source": "patent US5677350A", "about": "“Inhibition of cancer cell growth, proliferation, and metastasis using N,N'-dα,ω-diaminoalkanes” (priority 1995, dated 1997)", "key": {"[1]": {"system": "rat H-4-II-E hepatoma cells", "assay": "Proliferation of rat H-4-II-E hepatoma cells in culture", "format": "cell-based", "description": "(§1) Incubation of the cultures was carried out in standard fashion in the presence of 1 mM aminoguandine, an inhibitor of polyamine oxidases (PAO).\nCell proliferation studies were also conducted to analyze the effect of the terminal groups on cell inhibition. […] The results are depicted graphically in FIG. 5.\nComparative proliferation studies were also carried out to study the effect of chain length on the inhibitory effect of N,N'-dibenzylaminoalkanes. (See FIG. 6.) The in vitro inhibitory effects of DMP, DMC, and DBPr, were studied in the same rat H-4-II-E hepatoma cells as the above experiments.\nResults are shown graphically in FIG. 10."}, "[2]": {"biological_target": "T1, ODC (Rattus norvegicus, UniProt P09057)", "T1 sequence (P09057 1-461)": "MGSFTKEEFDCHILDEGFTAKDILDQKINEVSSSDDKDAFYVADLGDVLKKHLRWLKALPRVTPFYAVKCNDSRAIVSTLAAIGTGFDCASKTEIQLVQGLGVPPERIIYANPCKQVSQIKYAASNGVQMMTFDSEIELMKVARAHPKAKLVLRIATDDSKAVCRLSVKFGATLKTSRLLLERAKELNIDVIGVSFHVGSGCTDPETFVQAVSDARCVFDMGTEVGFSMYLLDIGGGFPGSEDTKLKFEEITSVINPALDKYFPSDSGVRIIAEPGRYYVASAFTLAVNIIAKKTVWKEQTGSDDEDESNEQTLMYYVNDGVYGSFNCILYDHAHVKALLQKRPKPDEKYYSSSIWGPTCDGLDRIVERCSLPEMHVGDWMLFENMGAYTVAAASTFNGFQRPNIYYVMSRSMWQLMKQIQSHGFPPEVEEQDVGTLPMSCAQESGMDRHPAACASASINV", "assay": "ODC activity in insulin-induced H-35 hepatoma cells", "format": "cell-based", "conditions": "100 μM; for ODC activity (in words): added simultaneously with insulin", "description": "It is known that in hepatoma H-35 cells, ODC activity is very low in quiescent cells, and is increased by the addition of 10^-6 M insulin, reaching a peak approximately 4 to 5 hours after the addition of the insulin."}, "[3]": {"biological_target": "T1, ODC", "conditions": "for inhibition at 15000 µM: read-out: ODC activity decreased"}, "[4]": {"system": "active putrescine transport", "assay": "Uptake of (1,4-14C)-putrescine by H-4-II-E hepatoma cells", "format": "cell-based, rat", "description": "(1,4-^14 C)-putrescine (10 μM) was added to the culture medium, and radioactivity measured in the cells (dpm/10 μg of protein). Uptake by control cells was considered to be 100%.\nBecause putrescine uptake by cells is regulated by an active transport system, its Km was determined for the H-4-II-E hepatoma cell line. The uptake of (1,4-^14 C)-putrescine was determined at two different putrescine concentrations as a function of time.\nEach value of the plot was corrected by subtracting the amount of label due to non-specific binding to the cell membranae."}, "[5]": {"system": "rat H-4-II-E hepatoma cells", "assay": "Cell morphology of rat H-4-II-E hepatoma cells (photomicrographs)", "format": "cell-based", "description": "as §1\nFIG. 7 is a series of photomicrographs (×160) of the above homologous cultures. The photomicrographs were taken 24 hours after introduction of the dibenzyldiaminoalkanes. […] Photo 7A is the control culture."}, "[6]": {"system": "H-35 cells", "assay": "DBP uptake and intracellular distribution in H-35 hepatoma cells", "format": "in vitro ADME, rat"}, "[7]": {"system": "insulin-induced H-35 hepatoma cells", "assay": "Intracellular polyamine levels in insulin-induced H-35 hepatoma cells", "format": "cell-based, rat", "conditions": "100 μM, hour 4"}, "[8]": {"system": "cell-derived rat and human xenografts", "conditions": "compared with 0.15% DBP; cited from earlier work"}, "[9]": {"conditions": "added 3 hours after insulin (time 4 hours)"}, "[10]": {"conditions": "H-35 cells not treated with insulin"}}, "data": [{"smiles": "c1ccc(CNCCCCCNCc2ccccc2)cc1", "note": "[DBC, N,N'-dibenzylcadaverine]", "values": [{"measurement": "effect on cell proliferation", "setting": "[1]; 100 μM, time not stated", "result": "showed inhibition of cell proliferation"}, {"measurement": "ODC inhibition (in words)", "setting": "[2]; [9]", "result": "ODC inhibition values were very similar"}, {"measurement": "ODC activity (in words)", "setting": "[2]", "result": "no significant ODC activity was detected"}, {"measurement": "in vitro ODC inhibition (in words)", "setting": "[3]; isolated ODC", "result": "weaker inhibitors than putrescine itself"}, {"measurement": "inhibition at 15000 µM", "setting": "[3]", "result": "< 10", "unit": "%"}, {"measurement": "inhibition of uptake of exogenous putrescine", "setting": "[4]; (1,4-14C)-putrescine 10 μM", "result": "produced an inhibition of the uptake of exogenous putrescine"}, {"measurement": "effect on cell morphology", "setting": "[5]; 100 μM, 24 hours", "result": "affect cell morphology similarly"}]}, {"smiles": "c1ccc(CNCCCCNCc2ccccc2)cc1", "note": "[DBP, N,N'-dibenzylputrescine]", "values": [{"measurement": "ODC inhibition (in words)", "setting": "[2]; [9]", "result": "ODC inhibition values were very similar"}, {"measurement": "ODC activity (in words)", "setting": "[2]", "result": "no significant ODC activity was detected"}, {"measurement": "ODC inhibition (in words)", "setting": "[2]; time 1 hour", "result": "required longer time periods to reach similar ODC inhibition levels"}, {"measurement": "inhibition at 15000 µM", "setting": "[3]", "result": "< 10", "unit": "%"}, {"measurement": "intracellular distribution of DBP, cytosol", "setting": "[6]; [10]", "result": 97, "unit": "%"}, {"measurement": "intracellular distribution of DBP, nuclear fraction", "setting": "[6]; [10]", "result": 2, "unit": "%"}, {"measurement": "DBP uptake, of the amount added", "setting": "[6]; H-35 cells not treated with insulin, 100 μM, 24 hours", "result": "approximately 6±2%"}, {"measurement": "DBP uptake, of the amount of putrescine added to the medium", "setting": "[6]; insulin-induced H-35 cells, 100 μM", "result": "approximately 13±4%"}]}, {"smiles": "c1ccc(CNCCCNCc2ccccc2)cc1", "note": "[DBPr, dibenzylpropanediamine]", "values": [{"measurement": "inhibition at 15000 µM", "setting": "[3]", "result": "< 10", "unit": "%"}]}, {"smiles": "CCNCCCCNCC", "note": "[DEP, diethyl putrescine]", "values": [{"measurement": "inhibition at 15000 µM", "setting": "[3]", "result": 13, "unit": "%"}]}, {"smiles": "NCCCC(N)(C(=O)O)C(F)F", "note": "(stereo not drawn) [DFMO, difluoromethylornithine]", "values": [{"measurement": "effect on cell proliferation", "setting": "[1]; 100 μM, time not stated", "result": "ineffective in inhibiting cell proliferation"}, {"measurement": "effect on cell proliferation", "setting": "[1]; 1 mM, after 48 hours", "result": "inhibit cell proliferation"}, {"measurement": "minimal effective concentration", "setting": "[1]; H4IIE, rat hepatoma cell line, read-out: concentration required for similar cytostatic effect", "result": 1000, "unit": "µM"}, {"measurement": "ODC inhibited from the control group", "setting": "[2]; added 1 hour before harvesting (6 hours after insulin)", "result": 79, "unit": "%"}, {"measurement": "ODC inhibition (in words)", "setting": "[2]; [9]", "result": "ODC inhibition values were very similar"}, {"measurement": "ODC activity (in words)", "setting": "[2]", "result": "no significant ODC activity was detected"}, {"measurement": "intracellular putrescine level", "setting": "[7]", "result": "decreased the endogenous levels of putrescine"}, {"measurement": "intracellular spermidine level", "setting": "[7]", "result": "lowered the levels of spermidine"}, {"measurement": "intracellular spermine level", "setting": "[7]", "result": "Neither reagent had an effect on the intracellular concentration of spermine"}, {"measurement": "effect on cell morphology", "setting": "[5]; 100 μM, 24 hours", "result": "no morphological changes"}, {"measurement": "effect on cell morphology", "setting": "[5]; 1 mM", "result": "no morphological changes"}, {"measurement": "concentration required to produce the same effect on xenografts", "setting": "[8]", "result": 2, "unit": "%"}]}, {"smiles": "CNCCCCNC", "note": "[DMP, dimethyl putrescine]", "values": [{"measurement": "inhibition at 15000 µM", "setting": "[3]", "result": 33, "unit": "%"}]}, {"smiles": "NCCCCN", "note": "[putrescine, 1,4-diaminobutane]", "values": [{"measurement": "ODC inhibition (in words)", "setting": "[2]; time 1 hour", "result": "required longer time periods to reach similar ODC inhibition levels"}, {"measurement": "inhibition at 15000 µM", "setting": "[3]", "result": 57, "unit": "%"}, {"measurement": "Km", "setting": "[4]; 2 mM and 20 mM (1,4-14C)-putrescine", "result": "5.2 ± 0.6", "unit": "µM"}, {"measurement": "intracellular putrescine level", "setting": "[7]", "result": "greatly increased the putrescine cell contents"}, {"measurement": "intracellular spermidine level", "setting": "[7]", "result": "very little effect on intracellular spermidine and spermine levels"}, {"measurement": "intracellular spermine level", "setting": "[7]", "result": "very little effect on intracellular spermidine and spermine levels"}]}]}
